Assay: HCV replicon assay (luciferase) in ET (Huh-lucubineo-ET) cell line
Assay type: cell-based
Details: Hepatitis C virus, inhibition of replication relative to no compound control, ET replicon cells, luciferase 48-72 hours; for inhibition at 5 µM: tested at 5 μM; for inhibition at 10 µM: tested at 10 μM, read-out: % inhition at 10 μM
Text: A cell line, ET (Huh-lucubineo-ET) was used for screening of compounds, or pharmaceutically acceptable salts or solvates, described herein for inhibition of HCV RNA dependent RNA polymerase. The ET cell line was stably transfected with RNA transcripts harboring a I389luc-ubi-neo/NS3-3′/ET; replicon with firefly luciferase-ubiquitin-neomycin phosphotransferase fusion protein and EMCV-IRES driven NS3-5B polyprotein containing the cell culture adaptive mutations (E1202G; T1280I; K1846T) (Krieger at al, 2001 and unpublished). The ET cells were grown in DMEM, supplemented with 10% fetal calf serum, 2 mM Glutamine, Penicillin (100 IU/mL)/Streptomycin (100 μg/mL), 1× nonessential amino acids, and 250 μg/mL G418 (“Geneticin”). They were all available through Life Technologies (Bethesda, Md.). The cells were plated at 0.5−1.0×10^4 cells/well in the 96 well plates and incubated for 24 hrs before adding the test compounds. […] Luciferase activity was measured 48-72 hours later by adding a lysis buffer and the substrate (Catalog number Glo-lysis buffer E2661 and Bright-Glo luciferase system E2620 Promega, Madison, Wis.). Cells should not be too confluent during the assay. Percent inhibition of replication was plotted relative to no compound control. Under the same condition, cytotoxicity of the compounds was determined using cell proliferation reagent, WST-1 (Roche, Germany). The compounds showing antiviral activities, but no significant cytotoxicities were chosen to determine the EC50 and TC50, the effective concentration and toxic concentration at which 50% of the maximum inhibition is observed. For these determinations, 6 dilutions of each compound were used. Compounds were typically diluted 3 fold to span a concentration range of 250 fold. EC50 and similarly TC50 values were calculated by fitting % inhibition at each concentration to the following equation:
% inhibition=100%/[(EC50/[I])^b+1]
where b is Hill's coefficient.

Compound | inhibition at 5 µM [%] | inhibition at 10 µM [%]
Fc1ccc(-c2cc(Cn3cc4nc(-c5cccc(F)c5F)nc-4cn3)on2)c(C(F)(F)F)c1 [Compound 101, 2-(2,3-Difluoro-phenyl)-5-[3-(4-fluoro-2-trifluoromethyl-phenyl)-isoxazol-5-ylmethyl]-5H-imidazo[4,5-d]pyridazine] | 80.3 | 92.9
CC(C)Oc1ccc(-c2cc(Cn3cc4nc(-c5cccc(F)c5F)nc-4cn3)on2)cc1 [Compound 102, 2-(2,3-Difluoro-phenyl)-5-[3-(4-isopropoxy-phenyl)-isoxazol-5-ylmethyl]-5H-imidazo[4,5-d]pyridazine] | 99.8 | 99.7
Fc1cccc(-c2nc3cnn(Cc4cc(-c5ccc(C(F)(F)F)cc5C(F)(F)F)no4)cc-3n2)c1F [Compound 103, 5-[3-(2,4-Bis-trifluoromethyl-phenyl)-isoxazol-5-ylmethyl]-2-(2,3-difluoro-phenyl)-5H-imidazo[4,5-d]pyridazine] | 100 | 100
Fc1cccc(-c2nc3cnn(Cc4cc(-c5ccc(Cl)cc5)no4)cc-3n2)c1F [Compound 104, 5-[3-(4-Chloro-phenyl)-isoxazol-5-ylmethyl]-2-(2,3-difluoro-phenyl)-5H-imidazo[4,5-d]pyridazine] | 99.7 | 99.7
CCCOc1ccc(-c2cc(Cn3cc4nc(-c5cccc(F)c5F)nc-4cn3)on2)cc1 [Compound 105, 2-(2,3-Difluoro-phenyl)-5-[3-(4-propoxy-phenyl)-isoxazol-5-ylmethyl]-5H-imidazo[4,5-d]pyridazine] | 99.9 | 99.7
CCCCOc1ccc(-c2cc(Cn3cc4nc(-c5ccccc5F)nc-4cn3)on2)cc1 [Compound 106, 5-[3-(4-Butoxy-phenyl)-isoxazol-5-ylmethyl]-2-(2-fluoro-phenyl)-5H-imidazo[4,5-d]pyridazine] | 99.3 | 99.7
CCCCCOc1ccc(-c2cc(Cn3cc4nc(-c5ccccc5F)nc-4cn3)on2)cc1 [Compound 107, 2-(2-Fluoro-phenyl)-5-[3-(4-pentyloxy-phenyl)-isoxazol-5-ylmethyl]-5H-imidazo[4,5-d]pyridazine] | 98.4 | 99.4
Fc1ccccc1-c1nc2cnn(Cc3cc(-c4ccc(OC(F)(F)F)cc4)no3)cc-2n1 [Compound 108, 2-(2-Fluoro-phenyl)-5-[3-(4-trifluoromethoxy-phenyl)-isoxazol-5-ylmethyl]-5H-imidazo[4,5-d]pyridazine] | 99.9 | 100
COc1ccc(-c2cc(Cn3cc4nc(-c5ccccc5F)nc-4cn3)on2)cc1 [Compound 109, 2-(2-Fluoro-phenyl)-5-[3-(4-methoxy-phenyl)-isoxazol-5-ylmethyl]-5H-imidazo[4,5-d]pyridazine] | 98 | 95.4
CCOc1ccc(-c2cc(Cn3cc4nc(-c5ccccc5F)nc-4cn3)on2)cc1 [Compound 110, 5-[3-(4-Ethoxy-phenyl)-isoxazol-5-ylmethyl]-2-(2-fluoro-phenyl)-55H-imidazo[4,5-d]pyridazine] | 99.4 | 97.4
Fc1ccccc1-c1nc2cnn(Cc3cc(-c4ccccc4)no3)cc-2n1 [Compound 111, 2-(2-Fluoro-phenyl)-5-(3-phenyl-isoxazol-5-ylmethyl)-5H-imidazo[4,5-d]pyridazine] | 16 | –
CC(C)Oc1ccc(-c2cc(Cn3cc4nc(-c5ccccc5F)nc-4cn3)on2)cc1 [Compound 112, 2-(2-Fluoro-phenyl)-5-[3-(4-isopropoxy-phenyl)-isoxazol-5-ylmethyl]-5H-imidazo[4,5-d]pyridazine] | 80.9 | 85.9
Fc1ccccc1-c1nc2cnn(Cc3nc(-c4ccc(Cl)cc4)no3)cc-2n1 [Compound 113, 5-[3-(4-Chloro-phenyl)-[1,2,4]oxadiazol-5-ylmethyl]-2-(2-fluoro-phenyl)-5H-imidazo[4,5-d]pyridazine] | 24.9 | 41.7
Fc1ccccc1-c1nc2cnn(Cc3cc(-c4ccc(C(F)(F)F)cc4C(F)(F)F)no3)cc-2n1 [Compound 114, 5-[3-(2,4-Bis-trifluoromethyl-phenyl)-isoxazol-5-ylmethyl]-2-(2-fluoro-phenyl)-5H-imidazo[4,5-d]pyridazine] | 99.3 | 98.5
Fc1ccc(-c2cc(Cn3cc4nc(-c5ccccc5F)nc-4cn3)on2)c(C(F)(F)F)c1 [Compound 115, 2-(2-Fluoro-phenyl)-5-[3-(4-fluoro-2-trifluoromethyl-phenyl)-isoxazol-5-ylmethyl]-5H-imidazo[4,5-d]pyridazine] | 67.6 | 75.3
Fc1ccccc1-c1nc2cnn(Cc3cc(-c4ccc(Cl)cc4)no3)cc-2n1 [Compound 116, 5-[3-(4-Chloro-phenyl)-isoxazol-5-ylmethyl]-2-(2-fluoro-phenyl)-5H-imidazo[4,5-d]pyridazine] | 92.1 | 92.8
CCCOc1ccc(-c2cc(Cn3cc4nc(-c5ccccc5F)nc-4cn3)on2)cc1 [Compound 117, 2-(2-Fluoro-phenyl)-5-[3-(4-propoxy-phenyl)-isoxazol-5-ylmethyl]-5H-imidazo[4,5-d]pyridazine] | 99.8 | 99.1
Nc1ccccc1-c1nc2cnn(Cc3cc(-c4ccc(C(F)(F)F)cc4C(F)(F)F)no3)cc-2n1 [Compound 119, 2-{5-[3-(2,4-Bis-trifluoromethyl-phenyl)-isoxazol-5-ylmethyl]-5H-imidazo[4,5-d]pyridazine-2-yl}-phenylamine] | – | 0
NC(=O)c1ccccc1-c1nc2cnn(Cc3cc(-c4ccc(C(F)(F)F)cc4C(F)(F)F)no3)cc-2n1 [Compound 133, 2-{5-[3-(2,4-Bis-trifluoromethyl-phenyl)-isoxazol-5-ylmethyl]-5H-imidazo[4,5-d]pyridazin-2-yl}-benzamide] | – | 10.1
Oc1ccccc1-c1nc2cnn(Cc3cc(-c4ccc(C(F)(F)F)cc4C(F)(F)F)no3)cc-2n1 [Compound 134, 2-{5-[3-(2,4-Bis-trifluoromethyl-phenyl)-isoxazol-5-ylmethyl]-5H-imidazo[4,5-d]pyridazin-2-yl}-phenol] | – | 0.51
FC(F)(F)c1ccc(-c2nc3cnn(Cc4cc(-c5ccc(C(F)(F)F)cc5C(F)(F)F)no4)cc-3n2)cc1 [Compound 135, 5-[3-(2,4-Bis-trifluoromethyl-phenyl)-isoxazol-5-ylmethyl]-2-(4-trifluoromethyl-phenyl)-5H-imidazo[4,5-d]pyridazine] | – | 0.79
FC(F)(F)c1ccc(-c2cc(Cn3cc4nc(-c5cccc6[nH]ccc56)nc-4cn3)on2)c(C(F)(F)F)c1 [Compound 136, 5-[3-(2,4-Bis-trifluoromethyl-phenyl)-isoxazol-5-ylmethyl]-2-(1H-indol-4-yl)-5H-imidazo[4,5-d]pyridazine] | – | 5.84
CC(=O)c1ccc(F)c(-c2nc3cnn(Cc4cc(-c5ccc(C(F)(F)F)cc5C(F)(F)F)no4)cc-3n2)c1 [Compound 137, 1-(3-{5-[3-(2,4-Bis-trifluoromethyl-phenyl)-isoxazol-5-ylmethyl]-5H-imidazo[4,5-d]pyridazin-2-yl}-4-fluoro-phenyl)-ethanone] | – | 40.4
CCCOc1ccc(-c2cc(Cn3cc4nc(-c5ccc(OC)cc5)nc-4cn3)on2)cc1 [Compound 138, 2-(4-Methoxy-phenyl)-5-[3-(4-propoxy-phenyl)-isoxazol-5-ylmethyl]-5H-imidazo[4,5-d]pyridazine] | – | 48.8
FC(F)(F)c1ccc(-c2cc(Cn3cc4nc(-c5ccc6[nH]ccc6c5)nc-4cn3)on2)c(C(F)(F)F)c1 [Compound 139, 5-[3-(2,4-Bis-trifluoromethyl-phenyl)-isoxazol-5-ylmethyl]-2-(1H-indol-5-yl)-5H-imidazo[4,5-d]pyridazine] | – | 51.1
Fc1cccc(F)c1-c1nc2cnn(Cc3cc(-c4ccc(C(F)(F)F)cc4C(F)(F)F)no3)cc-2n1 [Compound 140, 5-[3-(2,4-Bis-trifluoromethyl-phenyl)-isoxazol-5-ylmethyl]-2-(2,6-difluoro-phenyl)-5H-imidazo[4,5-d]pyridazine] | – | 82.7
FC(F)(F)c1ccc(-c2cc(Cn3cc4nc(-c5ccco5)nc-4cn3)on2)c(C(F)(F)F)c1 [Compound 142, 5-[3-(2,4-Bis-trifluoromethyl-phenyl)-isoxazol-5-ylmethyl]-2-furan-2-yl-5H-imidazo[4,5-d]pyridazine] | – | 66.3
FC(F)(F)c1ccc(-c2cc(Cn3cc4nc(-c5cccs5)nc-4cn3)on2)c(C(F)(F)F)c1 [Compound 143, 5-[3-(2,4-Bis-trifluoromethyl-phenyl)-isoxazol-5-ylmethyl]-2-thiophen-2-yl-5H-imidazo[4,5-d]pyridazine] | – | 96.1

Reference: patent US20090197880A1 (Genelabs Technologies, Inc., priority 2007, published 2009)
